# Source: patent US20250297232A1, “BACTERIAL MYELOPEROXIDASE-CATALASE AND APPLICATIONS THEREOF” (UNIVERSITÉ DE BORDEAUX, priority 2022, published 2025)
# Several values for one entry are separate records, joined by “and”; a condition that tells them apart may be missing. Identical values can stand only once. Like-named read-outs stand apart in the source and are kept apart here.
# Key:
# [1] = test system: Rhodopirellula baltica RbMPO, wild type, SEQ ID NO: 1; conditions: 0.5 nM wt RbMPO, 79 μM H2O2, 37° C., pH5.5
# Method: The plate reader was configured to run a 10 min kinetics at 430 nm with the following ABTS concentration range: 0, 0.1, 0.2, 0.5, 1, 2, 5, 10, 15, 20, 30 and 40 mM.
# [2] = biological target: Rhodopirellula baltica RbMPO, wild type, SEQ ID NO: 1; assay: Pre-steady-state kinetics: compound I formation and return to native state (stopped-flow, 412 nm); type: biochemical; conditions: for Ki: H2O2 excess; for Vreturn (Sreturn/[enzyme]) / kreturn max (return to native state) / kreturn/K1/2 (return to native state): wt RbMPO […], H2O2 20 μM
# Method: In the first moment after an enzyme is mixed with a substrate, no product has been formed and no intermediates exist. The study of the next few milliseconds of the reaction is called pre-steady-state kinetics.
# Kinetic parameters under pre-steady-state condition were performed with a Biologic SFM400 stopped-flow at 412 nm, 37° C. and with 50 mM sodium phosphate buffer at pH7.5. […] An exponential linear fit was applied to each kinetic using the following formula: […]
# where p1 corresponds to the exponential magnitude, p2 to the decay time Tau (s) and
# The heme Soret band is at 412 nm for the native Fe^III iron form, which is why the decrease in absorbance was followed at this particular wavelength as a function of time. The rate constant was measured using the A412nm curves as a function of time (data not shown). By applying Eq.4 to the exponential part of each kinetic, the values of Tau (s) were determined and the kobs (s^−1) were calculated.
# The return of the enzyme to its native state was studied by the impact of increasing concentrations of (pseudo)-halides substrates on compound I (FIG. 9B). […] It is the time difference (s) between the two characteristic steps that allowed the calculation of the values of the Vreturn(μM^−1.s^−1) values: […]
# [3] = test system: Rhodopirellula baltica RbMPO variant D202A, E316A (of SEQ ID NO: 1)
# Source text: (§1) The chlorination activity of myeloperoxidases can be determined using the aminophenyl fluorescein (APF) probe. One can indeed detect the oxidation of APF (non-fluorescent) by HOCl into fluorescein, a fluorescent molecule that is detectable at λex=485 nm and λem=525 nm. According to such test, the fluorescence measured is proportional to the quantity of fluorescein, which itself is proportional to the quantity of HOCl produced by the myeloperoxidase.
# (§2) Measurements of chlorination activity were herein performed in Corning 384-well clear-bottom (flat-bottom) plates with a reaction volume of 20 μL, in triplicate at 37° C., and in a 50 mM NaPi buffer at pH7.5. […] A 10 to 30 minutes kinetic was performed for each range value and the fluorescence intensity was compared to that of the standard fluorescein range. Thus, the measured fluorescence is proportional to the amount of fluorescein, which in turn is proportional to the amount of HOCl produced by the RbMPOs.
# (§3) The slopes were measured at the onset of the reaction in order to be in initial velocity. From these values, it was possible to calculate the kss with the following equation: […]
# [4] = test system: Rhodopirellula baltica RbMPO variant N317M (of SEQ ID NO: 1); conditions: N317M 1 μM, H2O2 range, 500 mM NaCl, 10 μM APF, 37° C., pH7.5
# Source text: as §1, §2, §3
# [5] = test system: Rhodopirellula baltica RbMPO, wild type, SEQ ID NO: 1; conditions: 37° C.; for Km: read-out: KM (catalase, H2O2); for Ki: read-out: Ki (catalase, H2O2)
# Method: Catalase activity was measured using the stopped-flow set-up, which was configured to measure absorbance decay at 240 nm and at 37° C.
# [6] = test system: Rhodopirellula baltica RbMPO, wild type, SEQ ID NO: 1; conditions: for kcatapp/KMappNaSCN (NaBr range) / kss/[Cl^−] (k2): 79 μM H2O2; for kss/[Cl^−] (k2): NaCl range
# Method: (§6) Initial rate measurements under steady state conditions were performed with a BioLogic SFM400 stopped-flow by using a single-mixing mode and an Xe/Hg lamp and a TC100/10 cell. […] At least five 120 s shots were monitored for each value of the substrate range with the following sample rates: 20 μs, 20 ms, 20 ms with 2000 points per period. Slopes were calculated from the average of the shorts for each concentration and kss (s^−1) were determined from the slopes using the following formula:
# (§7) The collected data were analysed with Origin software, then saturation curves for each substrate were fitted either by non-linear regression with or without inhibition by excess of substrate (Eq. 1 and 2) with [S]the substrate of interest, or by linear regression (Eq. 3) with a the slope and b the y-intercept.
# (§8) The stopped-flow was used to define the steady-state kinetic parameters of RbMPOs. […] From the averages of the curves obtained for each shot, the slopes in Abs.s^−1 were calculated and then converted into kss by the following relation:
# [7] = test system: Rhodopirellula baltica RbMPO variant H407A (of SEQ ID NO: 1); conditions: read-out: KM H2O2; H407A 1 μM; H2O2 range, 500 mM NaCl, 10 μM APF, 37° C., pH7.5
# [8] = test system: Rhodopirellula baltica RbMPO variant Q199A (of SEQ ID NO: 1); conditions: Q199A 1 μM, H2O2 range, 500 mM NaCl, 10 μM APF, 37° C., pH7.5
# [9] = test system: Rhodopirellula baltica RbMPO variant N317M (of SEQ ID NO: 1)
# Method: as §6, §7, §8
# [10] = test system: Rhodopirellula baltica RbMPO variant E316A (of SEQ ID NO: 1)
# Method: as §6, §7, §8
# [11] = test system: Rhodopirellula baltica RbMPO variant D202A, E316A (of SEQ ID NO: 1); remark: listed apart in the source
# Method: as §6, §7
# (§9) From the averages of the curves obtained for each shot, the slopes in Abs.s^−1 were calculated and then converted into kss by the following relation:
# [12] = test system: Rhodopirellula baltica RbMPO variant H203A (of SEQ ID NO: 1)
# Method: as §6, §7, §9
# [13] = test system: Rhodopirellula baltica RbMPO variant Q199A (of SEQ ID NO: 1)
# Method: as §6, §7, §8
# [14] = test system: Rhodopirellula baltica RbMPO variant D202A (of SEQ ID NO: 1); conditions: pH 7.5
# Method: as §6, §7, §8
# [15] = test system: Rhodopirellula baltica RbMPO variant H407A (of SEQ ID NO: 1)
# Method: as §6, §7, §9
# [16] = test system: Rhodopirellula baltica RbMPO variant D202A (of SEQ ID NO: 1); assay: Heme reconstitution (apo to holo) by tryptophan fluorescence quenching; type: binding; conditions: D202A 1 μM; 25° C., pH7.5
# Method: (§4) Tryptophan fluorescence quenching and recovery can be used to monitor the protein confirmation changes from an “apo” to an “holo” form upon addition of its coenzyme (herein heme).
# (§5) The Trp fluorescence quenching experiment was performed in a spectrofluorometric FP8300 with a temperature-controlled stirred-cell (25° C.). […] Sample dilutions were performed in a 50 mM pH7.5 sodium phosphate buffer.
# [17] = biological target: Rhodopirellula baltica RbMPO variant D202A, E316A (of SEQ ID NO: 1); assay: as above; type: binding; conditions: E316A 1 μM, 25° C., pH7.5
# Method: as §4, §5
# [18] = test system: Rhodopirellula baltica RbMPO variant E316A (of SEQ ID NO: 1); assay: as above; type: binding; conditions: E316A 1 μM; 25° C., pH7.5
# Method: as §4, §5
# [19] = test system: Rhodopirellula baltica RbMPO variant H203A (of SEQ ID NO: 1); assay: as above; type: binding; conditions: H203A 1 μM; 25° C., pH7.5
# Method: as §4, §5
# [20] = test system: Rhodopirellula baltica RbMPO variant H407A (of SEQ ID NO: 1); assay: as above; type: binding; conditions: H407A 1 μM; 25° C., pH7.5
# Method: as §4, §5
# [21] = test system: Rhodopirellula baltica RbMPO variant N317M (of SEQ ID NO: 1); assay: as above; type: binding; conditions: N317M 1 μM; 25° C., pH7.5
# Method: as §4, §5
# [22] = test system: Rhodopirellula baltica RbMPO variant Q199A (of SEQ ID NO: 1); assay: as above; type: binding; conditions: Q199A 1 μM; 25° C., pH7.5
# Method: as §4, §5
# [23] = test system: Rhodopirellula baltica RbMPO, wild type, SEQ ID NO: 1; assay: as above; type: binding; conditions: wt RbMPO 1 μM; 25° C., pH7.5
# Method: as §4, §5
# [24] = H2O2, wt RbMPO 1.78 μM, 37° C., pH7.5
# [25] = wt, 300 nM enzyme, 79 μM H2O2, 37° C., pH 7.5
smiles,measurement,setting,value
"CCn1c(=NN=c2sc3cc(S(=O)(=O)O)ccc3n2CC)sc2cc(S(=O)(=O)O)ccc21 [ABTS, 2,2′-azino-bis(3-ethylbenzothiazoline-6-sulfonic acid)]","k2 (peroxidase, ABTS)",[1],10620 ± 1510 M⁻¹ s⁻¹
"OO [H2O2, hydrogen peroxide]",Kd,[2]; [24],0.0569 ± 0.0201 mM
same,kobsmax (compound I formation),[2]; [24],57.09 ± 8.60 s⁻¹
same,Ki,"[2]; read-out: Ki (compound I formation, text)",10.9 mM
same,Ki,"[2]; wt RbMPO 1.78 μM, 37° C., pH7.5, read-out: Ki (compound I formation)",10.9 ± 3 mM
same,Km,"[3]; read-out: KM H2O2, E316A 1 μM, H2O2 range, 500 mM NaCl, 10 μM APF, 37° C., pH7.5",220 ± 60 µM
same,Ki,"[3]; read-out: Ki H2O2, E316A 1 μM, H2O2 range, 500 mM NaCl, 10 μM APF, 37° C., pH7.5",96.3 ± 31.9 mM
same,Km,[4]; read-out: KM H2O2,320 ± 90 µM
same,Ki,[4]; read-out: Ki H2O2,48.1 ± 15.4 mM
same,"kcat (catalase, H2O2)","[5]; pH 7, 2 μM wt RbMPO",1.62 ± 0.86 s⁻¹
same,"kcat (catalase, H2O2)","[5]; pH 7.5, 2 μM wt RbMPO",56.64 ± 20.62 s⁻¹
same,Km,"[5]; pH 7, 2 μM wt RbMPO",40 ± 40 µM
same,Km,"[5]; pH 7.5, 2 μM wt RbMPO",170 ± 110 µM
same,Ki,"[5]; pH 7, 2 μM wt RbMPO",0.54 ± 0.57 mM
same,Ki,"[5]; pH 7.5, 2 μM wt RbMPO",1.07 ± 0.7 mM
same,kcatapp (H2O2),"[6]; H2O2 range, Br 100 mM, 267 nM wt RbMPO",113.72 ± 72.11 s⁻¹
same,kcatapp (H2O2),"[6]; H2O2 range, SCN 5 mM, 267 nM wt RbMPO",203.24 ± 45.46 s⁻¹
same,Km,"[6]; read-out: KMapp (H2O2), H2O2 range, Br 100 mM, 267 nM wt RbMPO",230 ± 210 µM
same,Km,"[6]; read-out: KMapp (H2O2), H2O2 range, SCN 5 mM, 267 nM wt RbMPO",120 ± 40 µM
same,Km,[7],270 ± 90 µM
same,Km,[8]; read-out: KM H2O2,490 ± 150 µM
same,Ki,[8]; read-out: Ki H2O2,18.3 ± 5.34 mM
I [I^−],Vreturn (Sreturn/[enzyme]),"[2]; 37° C., pH7.5",16.66 ± 0.65 s⁻¹
same,kreturn max (return to native state),"[2]; 37° C., pH7.5",31.65 ± 1.23 µM/s
[Br-].[Na+] [NaBr],Vreturn (Sreturn/[enzyme]),"[2]; 37° C., pH7.5",11.11 ± 0.57 s⁻¹
same,kreturn max (return to native state),"[2]; 37° C., pH7.5",21.11 ± 1.09 µM/s
same,kreturn/K1/2 (return to native state),"[2]; 37° C., pH7.5",607.77 ± 161.51 M⁻¹ s⁻¹
same,Km,"[6]; read-out: KMapp (NaBr), wt, 300 nM enzyme, 79 μM H2O2, 37° C., pH 7.5",133000 ± 32800 µM
same,kcatapp (NaBr),[6]; [25],76.33 ± 5.12 s⁻¹
same,kcatapp/KMappNaSCN (NaBr range),"[6]; wt, 300 nM enzyme",576.86 ± 172.22 M⁻¹ s⁻¹
same,kcatapp/KMappNaSCN (NaBr range),"[6]; wt, 300 nM enzyme, listed as Br^−",576.96 ± 172.22 M⁻¹ s⁻¹
same,kss/[SCN^−] (NaBr range),[9],2.22 ± 1.20 M⁻¹ s⁻¹
same,activity (NaBr range),[10],No activity
same,activity (NaBr range),[11],No activity
same,kss/[SCN^−] (NaBr range),[12],73.94 ± 15.07 M⁻¹ s⁻¹
same,kss/[SCN^−] (NaBr range),[13],78.19 ± 22.00 M⁻¹ s⁻¹
[Cl-].[Na+] [NaCl],Vreturn (Sreturn/[enzyme]),"[2]; 37° C., pH7.5",1.37 ± 0.19 s⁻¹
same,kreturn max (return to native state),"[2]; 37° C., pH7.5",2.61 ± 0.37 µM/s
same,kreturn/K1/2 (return to native state),"[2]; 37° C., pH7.5",5169 ± 4872 M⁻¹ s⁻¹
same,kss/[Cl^−] (k2),"[6]; wt, 300 nM enzyme",5.46 ± 0.67 M⁻¹ s⁻¹
same,kss/[Cl^−] (k2),"[6]; wt, 300 nM enzyme, listed as Cl^−",4.48 ± 0.64 M⁻¹ s⁻¹
N#C[S-].[Na+] [NaSCN],Vreturn (Sreturn/[enzyme]),"[2]; 37° C., pH7.5",13.65 ± 0.51 s⁻¹
same,kreturn max (return to native state),"[2]; 37° C., pH7.5",25.94 ± 0.97 µM/s
same,Km,"[6]; read-out: KMapp (NaSCN), wt, 300 nM enzyme, 79 μM H2O2, 37° C., pH 7.5",510 ± 80 µM
same,kcatapp (NaSCN),[6]; [25],56.90 ± 6.92 s⁻¹
same,k2 (NaSCN),[9]; pH 7.5,1074 ± 53 M⁻¹ s⁻¹
same,kcatapp (NaSCN),[14],83.54 ± 12.04 s⁻¹
same,Km,[14]; read-out: KMapp (NaSCN),980 ± 310 µM
same,activity in presence of SCN,[15],not active
same,k2 (NaSCN),[10]; pH 7.5,1936 ± 374 M⁻¹ s⁻¹
same,activity (NaSCN range),[13],No activity
C=CC1=C(C)c2cc3[nH]c(cc4nc(cc5[nH]c(cc1n2)c(C)c5CCC(=O)O)C(CCC(=O)O)=C4C)c(C)c3C=C.[Fe+3] [heme],k2 (heme reconstitution),[16],302+23.4 M−1 · s−1
same,Kd,[17],0.0109 ± 0.00614 mM
same,Kobsmax (heme reconstitution),[17],0.28 ± 0.06 s⁻¹
same,k2 (heme reconstitution),[18],418 ± 34 M⁻¹ s⁻¹
same,k2 (heme reconstitution),[19],1840 ± 167 M⁻¹ s⁻¹
same,k2 (heme reconstitution),[20],1320 ± 18.9 M⁻¹ s⁻¹
same,k2 (heme reconstitution),[21],470.2 ± 57.8 M⁻¹ s⁻¹ and 472.2 ± 57.8 M⁻¹ s⁻¹
same,k2 (heme reconstitution),[22],1720 ± 133 M⁻¹ s⁻¹
same,k2 (heme reconstitution),[23],1430 ± 74.4 M⁻¹ s⁻¹
